ChEMBL document CHEMBL1201862, “PubChem BioAssay data set” (2004)
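A five-concentration, 48-hour dose response in 96-well plates underlies each endpoint, interpolated linearly between surrounding concentrations. Here, GI50 denotes the concentration required for 50% inhibition of growth.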 Calls of active or inactive are those of the source. Rule as the data show it: active = GI50 up to about 1.1 µM and inactive = higher.

Experiments:
Assay in all cases: DTP human tumour cell line panel, 48 h
ACHN = tested on: ACHN
CAKI-1 = tested on: CAKI-1
DU-145 = tested on: DU-145
HCC 2998 = tested on: HCC 2998
HCT-15 = tested on: HCT-15
IGROV-1 = tested on: IGROV-1
KM12 = tested on: KM12
MCF7 = tested on: MCF7
MDA-MB-435 = tested on: MDA-MB-435
NCI-H226 = tested on: NCI-H226
NCI-H23 = tested on: NCI-H23
NCI-H522 = tested on: NCI-H522
NCI/ADR-RES = tested on: NCI/ADR-RES
RPMI-8226 = tested on: RPMI-8226
SF-268 = tested on: SF-268
SF-295 = tested on: SF-295
SK-MEL-5 = tested on: SK-MEL-5
SW-620 = tested on: SW-620
UACC-257 = tested on: UACC-257
SF-539 = tested on: SF-539

SMILES	GI50 (ACHN)	GI50 (CAKI-1)	GI50 (DU-145)	GI50 (HCC 2998)	GI50 (HCT-15) [µM]	GI50 (IGROV-1)	GI50 (KM12)	GI50 (MCF7)	GI50 (MDA-MB-435)	GI50 (NCI-H226)	GI50 (NCI-H23)	GI50 (NCI-H522)	GI50 (NCI/ADR-RES)	GI50 (RPMI-8226)	GI50 (SF-268)	GI50 (SF-295)	GI50 (SK-MEL-5)	GI50 (SW-620)	GI50 (UACC-257)	GI50 (SF-539)
O=C1CCCC1C(=O)Nc1ccc2ccccc2c1 (stereo not given)	> 100 µM (inactive)	> 100 µM (inactive)	> 100 µM (inactive)	> 100 µM (inactive)	> 100	> 100 µM (inactive)	84.9 µM (inactive)	> 100 µM (inactive)	> 100 µM (inactive)	> 100 µM (inactive)	> 100 µM (inactive)	49 µM (inactive)	> 100 µM (inactive)	59.2 µM (inactive)	> 100 µM (inactive)	> 100 µM (inactive)	> 100 µM (inactive)	> 100 µM (inactive)	> 100 µM (inactive)	
N=c1oc2ccc([N+](=O)[O-])cc2cc1C(=O)NCc1ccccc1	16.7 µM (inactive)	19.2 µM (inactive)	33 µM (inactive)	32.1 µM (inactive)	17.8	12.3 µM (inactive)	14.3 µM (inactive)	35.7 µM (inactive)	23.1 µM (inactive)	12.9 µM (inactive)		12.8 µM (inactive)	16.5 µM (inactive)	38.7 µM (inactive)	22.3 µM (inactive)	36.4 µM (inactive)	18.7 µM (inactive)	20 µM (inactive)	19.8 µM (inactive)	17.7 µM (inactive)
COc1ccc2[nH]c(S(=O)(=O)N3CC(CCl)c4ccc(N)cc43)cc2c1 (stereo not given)	8.91 µM (inactive)	0.0254 µM (active)	0.429 µM (active)	2.94 µM (inactive)	< 0.0254	0.0547 µM (active)	< 0.01 µM (active)	0.0184 µM (active)	< 0.01 µM (active)	0.252 µM (active)		< 0.01 µM (active)	0.0624 µM (active)	0.103 µM (active)	0.0685 µM (active)	0.0775 µM (active)	< 0.0157 µM (active)	0.0358 µM (active)	4.14 µM (inactive)	0.0478 µM (active)
Cc1ccccc1C1=C/C(=C(\SS/C(C(=O)c2ccc(OCC(=O)O)c(Cl)c2Cl)=C2\C=C(c3ccccc3C)SS2)C(=O)c2ccc(OCC(=O)O)c(Cl)c2Cl)SS1	23.2 µM (inactive)	37.6 µM (inactive)	39.4 µM (inactive)	39.4 µM (inactive)	24	16.4 µM (inactive)	22.3 µM (inactive)	31.4 µM (inactive)	36.1 µM (inactive)	17.9 µM (inactive)	21.5 µM (inactive)	4.09 µM (inactive)	63 µM (inactive)	21.5 µM (inactive)	18 µM (inactive)	31.3 µM (inactive)	26.3 µM (inactive)	26.5 µM (inactive)	29.4 µM (inactive)	17.2 µM (inactive)
CC(=O)OCC12C(OC(C)=O)C[C@@H](C)C3(CC(c4ccoc4)OC3=O)C1CCC(O)C21CO1 (stereo not given in full)	> 100 µM (inactive)	> 100 µM (inactive)	> 100 µM (inactive)	> 100 µM (inactive)	> 100	> 100 µM (inactive)	> 100 µM (inactive)	> 100 µM (inactive)	> 100 µM (inactive)	> 100 µM (inactive)	> 100 µM (inactive)	> 100 µM (inactive)	> 100 µM (inactive)	> 100 µM (inactive)	> 100 µM (inactive)	> 100 µM (inactive)	> 100 µM (inactive)		> 100 µM (inactive)	> 100 µM (inactive)
O=C1C(Cl)=C(Nc2ccc(OC(F)(F)F)cc2)C(=O)c2c(O)ccc(O)c21	1.45 µM (inactive)	1.6 µM (inactive)	0.705 µM (active)	0.544 µM (active)	0.366	0.745 µM (active)	1.5 µM (inactive)	0.46 µM (active)	0.873 µM (active)	1.5 µM (inactive)	0.303 µM (active)	0.571 µM (active)	1.74 µM (inactive)	0.0598 µM (active)	0.594 µM (active)	1.93 µM (inactive)	2.11 µM (inactive)	0.891 µM (active)	0.959 µM (active)	1.73 µM (inactive)
CC1(C)N=C(N)N=C(N)N1CCCCc1ccccc1	1.48 µM (inactive)	7.94 µM (inactive)	3.57 µM (inactive)	13.3 µM (inactive)	2.92	0.232 µM (active)	0.689 µM (active)	0.838 µM (active)	0.155 µM (active)	6.47 µM (inactive)	0.31 µM (active)	0.708 µM (active)	> 90.2 µM (inactive)	2.43 µM (inactive)	< 0.025 µM (active)	0.145 µM (active)	0.59 µM (active)		1.63 µM (inactive)	0.34 µM (active)
Cc1ccc2[nH]c3c(c2c1)C1CCC(C(C)(C)C)CC1C1C(=O)N(c2ccc4c(c2)OCO4)C(=O)C31 (stereo not given)	1.87 µM (inactive)	2.3 µM (inactive)	2.99 µM (inactive)	2.38 µM (inactive)	5.21	2.45 µM (inactive)	5.25 µM (inactive)	3.24 µM (inactive)	7.21 µM (inactive)	2.84 µM (inactive)	6.55 µM (inactive)	2.67 µM (inactive)	3.1 µM (inactive)	4.3 µM (inactive)	2.03 µM (inactive)	3.11 µM (inactive)	8.15 µM (inactive)	2.63 µM (inactive)	9.68 µM (inactive)	1.35 µM (inactive)
FC(F)(F)c1ccc(/N=C/C=C(/Nc2ccc(C(F)(F)F)cc2)c2ccc(Cl)cc2)cc1	10.1 µM (inactive)	3.49 µM (inactive)	13.5 µM (inactive)		4.73	2.62 µM (inactive)	4.71 µM (inactive)	17.5 µM (inactive)	6.82 µM (inactive)	4.53 µM (inactive)	12.2 µM (inactive)	11.1 µM (inactive)	13.7 µM (inactive)	4.72 µM (inactive)	12.1 µM (inactive)	15.8 µM (inactive)	6.56 µM (inactive)	11 µM (inactive)	16.4 µM (inactive)	14.2 µM (inactive)
CCOC(=O)c1ccc(NCc2ccc3oc(=O)c(-c4ccccc4)nc3c2)cc1	26.6 µM (inactive)	5.2 µM (inactive)	36.2 µM (inactive)	> 100 µM (inactive)	81.5	67 µM (inactive)	> 100 µM (inactive)	15.8 µM (inactive)	16.2 µM (inactive)	94.2 µM (inactive)	19.1 µM (inactive)	6.21 µM (inactive)	50.7 µM (inactive)		64.1 µM (inactive)	> 100 µM (inactive)	23.6 µM (inactive)	21.6 µM (inactive)	20.3 µM (inactive)	> 100 µM (inactive)
CC(=O)OCC(Br)C1(C)CCC(C(C)(C)Br)O1 (stereo not given)	94.8 µM (inactive)	> 100 µM (inactive)	> 100 µM (inactive)	98.6 µM (inactive)		80.2 µM (inactive)	39.8 µM (inactive)	56.4 µM (inactive)	69.5 µM (inactive)	32.8 µM (inactive)	65.5 µM (inactive)	28.5 µM (inactive)	> 100 µM (inactive)	> 100 µM (inactive)	> 100 µM (inactive)	> 100 µM (inactive)	35.9 µM (inactive)	55.6 µM (inactive)	12.1 µM (inactive)	> 100 µM (inactive)
CC(C)CCC[C@@H](C)[C@H]1CC[C@H]2[C@@H]3CC[C@H]4C[C@@H](CCC=C(c5cc(Cl)c(O)c(C(=O)O)c5)c5cc(Cl)c(O)c(C(=O)O)c5)CC[C@]4(C)[C@H]3CC[C@]12C	> 100 µM (inactive)	> 100 µM (inactive)	> 100 µM (inactive)	> 100 µM (inactive)	> 100	> 100 µM (inactive)	> 100 µM (inactive)	> 100 µM (inactive)	> 100 µM (inactive)	> 100 µM (inactive)	> 100 µM (inactive)	> 100 µM (inactive)	> 100 µM (inactive)	> 100 µM (inactive)	> 100 µM (inactive)	> 100 µM (inactive)	> 100 µM (inactive)	> 100 µM (inactive)	> 100 µM (inactive)	> 100 µM (inactive)
COc1ccc(OC)c(CC2CCc3nc(N)nc(N)c3C2)c1 (stereo not given)	< 0.0284 µM (active)	27.1 µM (inactive)	1.62 µM (inactive)	0.69 µM (active)	< 0.0435	< 0.0453 µM (active)	1.56 µM (inactive)	0.509 µM (active)	12.6 µM (inactive)	20.9 µM (inactive)	0.251 µM (active)	0.774 µM (active)	2.8 µM (inactive)	18.2 µM (inactive)	< 0.0192 µM (active)		< 0.019 µM (active)	0.286 µM (active)	5.78 µM (inactive)	0.275 µM (active)
COc1cc([C@H]2Oc3c(OC)cc(CCCO)cc3[C@@H]2CO)ccc1O [DIHYDRODEHYDRODICONIFERY ALCOHOL]	> 100 µM (inactive)		> 100 µM (inactive)	> 100 µM (inactive)	> 100	> 100 µM (inactive)	> 100 µM (inactive)	37.2 µM (inactive)	> 100 µM (inactive)	> 100 µM (inactive)	54.5 µM (inactive)	69.2 µM (inactive)	> 100 µM (inactive)	55.1 µM (inactive)	> 100 µM (inactive)	> 100 µM (inactive)	39 µM (inactive)	> 100 µM (inactive)	43.4 µM (inactive)	> 100 µM (inactive)
